{"source": "patent US9034303B2", "about": "“Neuroprotective and neuro-restorative iron chelators and monoamine oxidase inhibitors and uses thereof” (priority 2010, dated 2015)", "key": {"rat brain MAO-A": {"molecular_target": "rat brain MAO-A (Rattus norvegicus (Rat), UniProt P21396)", "sequence (P21396 whole entry)": "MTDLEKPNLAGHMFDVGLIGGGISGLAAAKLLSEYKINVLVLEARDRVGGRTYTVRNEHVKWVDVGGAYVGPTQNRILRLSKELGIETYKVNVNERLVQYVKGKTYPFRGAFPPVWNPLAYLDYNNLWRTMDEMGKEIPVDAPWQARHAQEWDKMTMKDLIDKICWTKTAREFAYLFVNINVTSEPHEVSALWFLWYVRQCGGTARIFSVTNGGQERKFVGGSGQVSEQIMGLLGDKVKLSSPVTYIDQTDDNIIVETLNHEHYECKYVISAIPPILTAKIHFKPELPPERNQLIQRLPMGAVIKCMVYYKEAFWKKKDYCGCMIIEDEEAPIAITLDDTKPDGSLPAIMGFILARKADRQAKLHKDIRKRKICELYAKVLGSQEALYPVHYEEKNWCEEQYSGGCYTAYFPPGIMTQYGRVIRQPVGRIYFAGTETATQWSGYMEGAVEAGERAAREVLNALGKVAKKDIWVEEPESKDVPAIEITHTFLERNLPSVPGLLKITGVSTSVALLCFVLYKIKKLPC", "test": "In vitro inhibition of rat brain MAO-A (14C-5-HT substrate)", "type": "biochemical", "procedure": "Rats are decapitated and the brains quickly taken into a weighted ice-cold sucrose buffer (0.32 M) and their weights determined. All subsequent procedures are performed at 0° C. The brains are homogenized in 0.32 M sucrose (one part tissue to 20 parts sucrose) in a Teflon glass homogenizer followed by the addition of sucrose buffer to a final concentration of 10% homogenate. The homogenates are centrifuged at 600 g for 15 min. The supernatant fractions are taken out and centrifuged at 4500 g for 30 min, the pellet diluted in 0.32 M sucrose buffer and kept frozen for later assaying of MAO. Protein concentration is determined with Bradford reagent at λ=595 nm, using BSA as a standard.\nMAO-A and MAO-B activities are determined in rat brain homogenate in vitro following incubation with varying concentrations of the test compounds.\nThe activity of MAO-A and MAO-B was determined by the adapted method of Tipton & Youdim (Tipton K F, O'Sullivan J, Youdim M B, 1983, Encyclopedia of Neuroscience, 2004, G. Adelman and B. H. Smith, Elsevier). The test compound was added to a suitable dilution of the enzyme preparation (70 μg protein for MAO-B and 150 μg MAO-A assay) in 0.1 M phosphate buffer (pH 7.4). The mixture was incubated together with […], a specific inhibitor of MAO-B (for determination of MAO-A) or 0.05 M clorgylin, a specific inhibitor of MAO-A (for determination of MAO-B). Incubation was carried for 0.5 or 1 h at 37° C. before addition of ^14C-5-hydroxytryptamine binoxalate (5-HT) (100 or 400 μM) for determination of MAO-A, or ^14C-phenylethylamine (^14C-PEA) 100 or 400 μM for determination of MAO-B, and incubation continued for 30 min or 20 min, respectively. The reaction was stopped with 2 M ice-cold citric acid, and the metabolites were extracted and determined by liquid-scintillation counting in cpm units. […]\nMAO-A and MAO-B activity was measured using radioactive substrates. The substrate for MAO-A was 5 HT and for MAO-B was PEA. When measuring the activity of MAO-A, the MAO-B activity was inhibited with deprenyl and when measuring the activity of MAO-B the activity of MAO-A was inhibited with clorgylin. Blank samples were produced using TCP to inhibit both of the enzymes. The metabolites were extracted to toluene and read in a β-counter. The results are expressed in relative activity and normalized to the amount of protein in the tissue."}, "MAO-A": {"molecular_target": "MAO-A (Mus musculus (Mouse), UniProt Q64133)", "sequence (Q64133 whole entry)": "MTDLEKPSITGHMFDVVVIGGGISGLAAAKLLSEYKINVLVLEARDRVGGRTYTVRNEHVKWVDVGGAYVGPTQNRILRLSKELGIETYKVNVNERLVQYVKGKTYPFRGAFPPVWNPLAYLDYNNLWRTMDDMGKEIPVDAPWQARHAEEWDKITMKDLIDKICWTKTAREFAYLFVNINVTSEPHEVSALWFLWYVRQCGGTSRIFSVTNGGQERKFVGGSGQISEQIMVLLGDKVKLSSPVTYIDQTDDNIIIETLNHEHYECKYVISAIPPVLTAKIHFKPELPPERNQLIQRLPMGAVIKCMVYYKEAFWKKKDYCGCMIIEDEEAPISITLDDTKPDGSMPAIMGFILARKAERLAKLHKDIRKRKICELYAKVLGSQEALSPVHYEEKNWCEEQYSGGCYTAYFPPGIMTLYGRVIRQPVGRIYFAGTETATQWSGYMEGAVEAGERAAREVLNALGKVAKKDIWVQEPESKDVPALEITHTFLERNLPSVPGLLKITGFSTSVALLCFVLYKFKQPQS", "type": "in vivo, mice", "procedure": "For the MAO-inhibition study, mice (6 mice in each group) were injected intraperitoneally (i.p.) with compound 3 at the dosage of 5 or 10 mg/kg; or with M30 at the dosage of 10 mg/kg. Control mice received saline (0.1 mL) i.p. One hour later the mice were killed by cervical dislocation, while striatum and small intestine were removed rapidly and frozen in liquid nitrogen for further analysis. FIGS. 3 and 4 show MAO-A/MAO-B in vivo activity of compound 3 compared to the activity of M30. FIG. 3 presents an MAO inhibition in striatum, and FIG. 4 presents an MAO inhibition in intestine. The percent inhibition was computed based on comparison to control animals."}, "[1]": {"test": "Plasma stability in vitro in human blood plasma (LC-MS/MS)", "type": "in vitro ADME", "details": "10 μM, ~37° C.", "procedure": "The stability of the compound 3 was evaluated in human blood plasma. Human plasma was purchased from a commercial source (Bioreclamation, Inc., East Meadow, N.Y.). The plasma was prepared from blood collected using sodium fluoride/potassium oxalate as the anticoagulant. The plasma was stored at −20° C. prior to use. The plasma, once thawed for use, was centrifuged at ˜4000 rpm for five minutes and transferred to a new tube to remove any precipitate. The pH of the plasma was adjusted to 7.4. Compound 3 was added to plasma samples to achieve a final concentration of 10 μM and distributed into the required number of low retention tubes (triplicate tubes for each timepoint) for incubation at ˜37° C. in a water bath. Incubations were terminated at 0, 1, and 6 hours by the addition of three volumes of cold acetonitrile. The supernate after centrifugation was subjected to LC-MS/MS analysis. Stability of the test article was assessed by comparison of the peak area at one and six hours to that at time zero."}, "HepG2 cells": {"system": "HepG2 cells", "test": "Cytotoxicity in presence and absence of exogenous iron, HepG2", "type": "cell-based, human", "procedure": "(§1) The potential of compound 3 to be toxic in the presence of free iron was also tested. The iron complexation method was based on the method of Leanderson and Tagesson (Carcinogenesis, 17, 545-550, 1996) with some modifications. Iron (III) was prepared from ferric ammonium citrate (Sigma, F5879) at 80 mM in sterile distilled water. Compound 3 was prepared at a 200 mM concentration in DMSO. Before each experiment, the freshly prepared iron (III) solution was diluted to 0.4 mM in PBS II (PBS containing 0.90 mM Ca^2+ and 0.49 mM Mg^2+). Compound 3 stock solutions were diluted to 2, 0.2, and 0.02 mM with PBS II. Equal volumes of the 0.4 mM iron (III) solution and compound 3 solutions were added together to prepare iron/test article complex solutions containing 1, 0.1, and 0.01 mM compound 3 and 0.2 mM iron (III). The compound 3 DMSO stock solution was diluted in PBS II at 1, 0.1, or 0.01 mM and used as compound 3 control without iron. An equal volume of the 0.4 mM iron (III) solution was diluted in PBS II to prepare a control containing only iron.\n(§2) The medium was removed from the plated cells (both cell lines) and replaced with fresh medium (90 μL). Iron/compound 3 complex or compound 3 in PBS II without iron was added to cells in triplicate (10 μL) to final compound 3 concentrations of 100, 10, and 1 μM and an iron (III) concentration of 20 μM. Wells containing no cells were used as the background control. PBS II was run as vehicle control. Iron only was run at a final concentration of 20 μM.\n(§3) Cell viability was determined as described above and cytotoxicity was compared between treatments with and without iron complexation."}, "SHSY-5Y cells": {"system": "SHSY-5Y cells", "test": "Cytotoxicity in presence and absence of exogenous iron, SH-SY5Y", "type": "cell-based, human", "procedure": "as §1, §2, §3"}, "[2]": {"details": "with iron (20 μM), compound 1 μM"}, "[3]": {"details": "with iron (20 μM), compound 10 μM"}, "[4]": {"details": "with iron (20 μM), compound 100 μM"}}, "note": "pIC50: −log10 of the molar value. Read-outs that look alike come from different tables or passages of the source."}
{"smiles": "C#CCN(C)CCc1ccc(O)c2ncccc12", "note": "[Compound 3, 5-[2-(methyl-2-propyn-1-ylamino)ethyl]-8-quinolinol]", "values": [{"measurement": "pIC50", "setting": "rat brain MAO-A", "value": "7.05 to 7.15"}, {"measurement": "Inhibition of rat brain MAO-A in vitro (in words)", "setting": "rat brain MAO-A; rat brain", "value": "potent inhibitors"}, {"measurement": "pIC50", "setting": "rat brain MAO-A; read-out: MAO-A IC50, estimated from the data in FIG. 1, rat brain MAO-A", "value": "7.05 to 7.15"}, {"measurement": "MAO-A inhibition in striatum", "setting": "MAO-A; mice, single i.p. injection, 5 or 10 mg/kg, one hour later", "value": "inhibited in a dose responsive fashion"}, {"measurement": "MAO-A inhibition in intestine", "setting": "MAO-A; mice, single i.p. injection, small intestine, one hour later", "value": "Reduced inhibition in the intestinal tissue versus striatal tissue"}, {"measurement": "Penetration of brain tissue", "setting": "MAO-A; mouse, in vivo, ip", "value": "able to penetrate brain tissue"}, {"measurement": "Amount of compound 3 in human blood plasma", "setting": "[1]; 0 hour, reference time point", "value": 100, "unit": "%"}, {"measurement": "Amount of compound 3 in human blood plasma", "setting": "[1]; 1 hour", "value": 86, "unit": "%"}, {"measurement": "Amount of compound 3 in human blood plasma", "setting": "[1]; 6 hours", "value": 93, "unit": "%"}, {"measurement": "HepG2 cell death (%)", "setting": "HepG2 cells; [2]", "value": 4.8, "unit": "%"}, {"measurement": "HepG2 cell death (%)", "setting": "HepG2 cells; [3]", "value": 11.9, "unit": "%"}, {"measurement": "HepG2 cell death (%)", "setting": "HepG2 cells; [4]", "value": 99.5, "unit": "%"}, {"measurement": "HepG2 cell death (%)", "setting": "HepG2 cells; without iron, compound 1 μM", "value": "−0.1", "unit": "%"}, {"measurement": "HepG2 cell death (%)", "setting": "HepG2 cells; without iron, compound 10 μM", "value": "−0.7", "unit": "%"}, {"measurement": "HepG2 cell death (%)", "setting": "HepG2 cells; without iron, compound 100 μM", "value": "−3.6", "unit": "%"}, {"measurement": "SHSY-5Y cells alive", "setting": "SHSY-5Y cells; with exogenous iron (20 μM), compound 1 μM", "value": 100, "unit": "%"}, {"measurement": "SHSY-5Y cell death (%)", "setting": "SHSY-5Y cells; [2]", "value": "−1.0", "unit": "%"}, {"measurement": "SHSY-5Y cell death (%)", "setting": "SHSY-5Y cells; [3]", "value": 7.6, "unit": "%"}, {"measurement": "SHSY-5Y cell death (%)", "setting": "SHSY-5Y cells; [4]", "value": 90.3, "unit": "%"}, {"measurement": "SHSY-5Y cell death (%)", "setting": "SHSY-5Y cells; without iron, compound 1 μM", "value": 2.1, "unit": "%"}, {"measurement": "SHSY-5Y cell death (%)", "setting": "SHSY-5Y cells; without iron, compound 10 μM", "value": 0.8, "unit": "%"}, {"measurement": "SHSY-5Y cell death (%)", "setting": "SHSY-5Y cells; without iron, compound 100 μM", "value": 0.4, "unit": "%"}]}
